Measured values taken from patent US20250375503A1, “Method and System for Tuning Hormone Receptors through the Dynamic Intravenous Delivery of a Hormone According to a Target Physiological Cadence” (Well Cell Global LLC, priority 2024, published 2025).

Test system: human kidney
Assay: periodic infusion of insulin into a perfused, extracted three-day-old human kidney (similar to PIR treatment)
From the text: For example, using a three-day-old human kidney that was extracted or otherwise removed from the human body, after a control period, the kidney was augmented with a periodic infusion of insulin for approximately two hours at a concentration similar to the amount of insulin projected to be seen by a kidney in situ in a person who would receive physiological insulin resensitization (PIR) treatment.
The perfusate was sampled before and after passing through the kidney at five-to-fifteen-minute intervals to determine if glucose was being removed and to determine any changes in electrolytes, such as sodium and potassium.
The ability of the kidney to generate and excrete urine was monitored via a catheter attached to a ureter.
Two-millimeter punch biopsies were examined approximately every fifteen minutes with a specialized Acquyre Biosciences microscope that produces pseudo-colored images at a cellular level that reflect the extent of intracellular organellar movement. Intracellular movement is dependent on the availability of cytoplasmic ATP (adenosine triphosphate).

insulin
ability of the kidney to generate and excrete urine (monitored via catheter attached to a ureter, after about one hour of treatment, no excretion during control period): the kidney began to excrete urine | glucose ingested by the kidney from the perfusate (perfusate sampled before and after passing through the kidney at five-to-fifteen-minute intervals, periodic insulin infusion for approximately two hours, versus control period): well in excess of the control level | alteration of electrolyte concentrations (sodium, potassium) in the perfusate (perfusate sampled before and after passing through the kidney, periodic insulin infusion, versus control period): better alter the electrolyte concentrations in a manner similar to a kidney in situ | intracellular organellar movement in punch biopsies (reflects cytoplasmic ATP) (two-millimeter punch biopsies, Acquyre Biosciences microscope, after approximately thirty minutes of perfusion, relative to control period): obvious increase in intracellular movement relative to the control period
